This is an account of results in patent publication US11391726B2, “MoT cells as a therapeutic screening tool for regulatory t-cell activity” (ARIZONA BOARD OF REGENTS ON BEHALF OF ARIZONA STATE …, priority 2018, dated 2022).

One assay concerns MoT cells. Description: CFSE suppression assay: Mabs pre-incubated with MoT cells, then co-cultured with CD3/28-stimulated CD4+ PBMC. Conditions: Mab pre-incubated with MoT cells 30 minutes, CD4+ PBMC:MoT ratio 1:1/2, CFSE flow cytometry (FIGS. 5D, 5F, 5H). It counts as cell-based, human. The method, then: (§1) Suppression assays. After IRB approval at Arizona State University (protocol #0601000548), peripheral blood was collected from healthy donors. After Ficoll-Paque Plus gradient separation of the buffy coat, CD4+ cells were purified using EasySep Human CD4^+ T Cell Isolation Kit (Catalog #17952 from Stemcell Technologies). Cells were allowed to rest overnight in cIMDM at 37° C. prior to labeling with CFSE (Carboxyfluorescein succinimidyl ester, from Cayman Chemica cat #10009853) dye to track cell divisions. The following day, CD4^+ T cells were counted, stained with CFSE, washed in PBS and then plated in IMDM with 10% FBS at 3×10^5 cells per well in a 48-well plate coated with OKT3 antibody at 5.0 ug/mL for 2 hours at 37° C. then washed twice in PBS before adding soluble co-stimulatory anti-CD28 (eBioscience clone CD28.6) at 5.0 ug/mL final concentration.
In some studies MoT and Jurkat cells were labeled with Cell Trace FarRed dye (Thermofisher) to gate MoT and Jurkat cells away from CD4^+ PBMC in flow cytometry analysis. Two-fold serial dilutions of MoT and Jurkat cells were added to CD4^+ PBMC, starting at 1.5×10^5 MoT and Jurkat cells (1:1/2 ratio CD4^+ T cells:tumor cells). Final volume per well was 1 mL. Cells were incubated for 5 days. […]
For orientation: Flow cytometry measures light scatter and fluorescence of single cells or particles in a stream.

The next assay deals with CD4+ PBMC. Put plainly: CFSE proliferation assay: Mabs co-incubated with CD3/28-stimulated CD4+ PBMC without MoT cells. The assay is classed as cell-based, human. The settings on record: no MoT cells (FIGS. 5C, 5E, 5G). The method, then:
as §1
(FIG. 5A) Unstimulated PBMC. (FIG. 5B) CD3/28-stimulated CD4^+ PBMC cell division without MoT cells. (FIG. 5C) Anti-GITR, (FIG. 5E) Anti-CCR4 mogamulizumab, and (FIG. 5G) anti-PDL-1 (atezolizumab) co-incubated with PBMCs. (FIG. 5D) Anti-GITR, (FIG. 5F) anti-CCR4 (mogamulizumab), and (FIG. 5H) anti-PDL-1 (atezolizumab) co-incubated with PBMCs and MoT cells (1:½ ratio).

“Also recorded” adds a separate entry of the source.

As to atezolizumab, the figures for the “reversal of MoT cell-mediated suppression of CD4+ PBMC proliferation” value in the assay with MoT cells and in the assay on MoT cells (listed as anti-PD-L1) were “None of the checkpoint inhibitor Mabs including anti-GITR reversed MoT cell-mediated suppression; also recorded: did not reverse suppression” and “did not attenuate MoT Treg suppressive activity”, respectively. In addition, the “suppression or inhibition of CD4+ PBMC proliferation by the Mab alone” value with CD4+ PBMC is reported as “do not suppress or inhibit”.
